Read-outs that look alike come from different tables or passages of the source.
Legend:
[1] = molecular target: T1, HIV-1 protease (Q7S mutant form) (Human immunodeficiency virus type 1 group M subtype B, UniProt P04585, Q495S); test: HIV-1 Protease RET assay; type: biochemical
T1 construct: made in house
Method in brief: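 Ki values fitted with the Morrison tight-binding equation from steady-state RET cleavage (ex 340, em 490 nm) of 5 μM RE(EDANS)SQNYPIVQK(DABCYL)R. Buffer pH 4.8 acetate, 1M NaCl, 5 mM DTT, 1 mg/ml BSA, 10% DMSO; 2 nM Q7S mutant dimer, 37 °C, 12 min.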

[2] = tested on: HIV-1 (HIV-1 RF, HIV-1 NL4-3) in CEM-SS / MT-2 cells; test: Cytopathic effect (CPE) inhibition assay (XTT/MTT dye reduction); type: cell-based
Description: T-cell lines, CEM-SS, and MT-2, and viruses HIV-1 RF and HIV-1 NL4-3 (pNL4-3) were obtained from the National Institutes of Health (AIDS Research and Reference Reagent Program, Bethesda, Md.).
Cytopathic Effect (CPE) Inhibition Assays
The ability of compounds to protect cells against HIV infection was measured by the […] dye reduction method, essentially as described (See Pauwels, R. Balzarini, J. Baba, M. Snoeck, R. Schols, D. Herdewijn, P. Desmyter, J. and De Clercq, E. 1988, “Rapid and automated tetrazolium-based colorimetric assay for the detection of anti-HIV compounds,”. J Virol. Methods., 20: 309–321 and Weislow, O. S. Kiser, R. Fine, D. L. Bader, J. Shoemaker, R. H. and Boyd, M. R. 1989. “New soluble-formazan assay for HIV-1 cytopathic effects: application to high-flux screening of synthetic and natural products for AIDS-antiviral activity”. J. Natl. Cancer Inst. 81:577–586). Subject cells were infected with test virus at an moi of 0.025 to 0.819 or mock infected with medium only and added at 2×10^4 cells per well into 96 well plates containing half-log dilutions of test compounds. Six days later, 50 μl of XTT (1 mg/ml XTT tetrazolium, 0.02 nM phenazine methosulfate) was added to the wells and the plate was reincubated for four hours. Viability, as determined by the amount of XTT formazan produced, was quantified spectrophotometrically by absorbance at 450 nm. Data from CPE assays were expressed as the percent of formazan produced in compound-treated cells compared to formazan produced in wells of uninfected, compound-free cells. The fifty percent effective concentration (EC50) was calculated as the concentration of compound that effected an increase in the percentage of formazan production in infected, compound-treated cells to 50% of that produced by uninfected, compound-free cells. The 50% cytotoxicity concentration (CC50) was calculated as the concentration of compound that decreased the percentage of formazan produced in uninfected, compound-treated cells to 50% of that produced in uninfected, compound-free cells. The therapeutic index was calculated by dividing the cytotoxicity (CC50) by the antiviral activity (EC50).

[3] = Human immunodeficiency virus 1, NL43, unit inferred, read-out: EC50
[4] = Ave. Ki (nM), RET assay, Q7S enzyme, Morrison tight binding fit
[5] = Human immunodeficiency virus 1, NL43, read-out: Ave CPE EC50

With `CC(=O)C(=O)N[C@@H](Cc1ccccc1)[C@H](O)C(=O)N1CSC(C)(C)[C@H]1C(=O)NCc1ccccc1C` the Ki ([1]; Ki, unit inferred) was 4.7 nM and the EC50 [2, 3] was ≥ 1000 nM.
Compound `Cc1c(O)cccc1C(=O)N[C@@H](Cc1ccccc1)[C@H](O)C(=O)N1CSC(C)(C)[C@H]1C(=O)NCc1ccncc1` [Example A8, (R)-3-((2S,3S)-2-Hydroxy-3-{[1l-(3-hydroxy-2-methyl-phenyl)-methanoyl]-amino}-4-phenyl-butanoyl)-5,5-dimethyl-thiazolidine-4-carboxylic acid (pyridin-4-ylmethyl)-amide] has a Ki [1, 4] of 1.4 nM and an EC50 [2, 5] of 451 nM.
`Cc1c(O)cccc1C(=O)N[C@@H](Cc1ccccc1)[C@H](O)C(=O)N1CSC(C)(C)[C@H]1C(=O)NCc1n[nH]c2ccccc12` [Example A44, 3-(2-Hydroxy-3-{[1-(3-hydroxy-2-methyl-phenyl)-methanoyl]-amino}-4-phenyl-butanoyl)-5,5-dimethyl-thiazolidine-4-carboxylic acid (1H-indazol-3-ylmethyl)-amide] was tested, and the Ki [1, 4] was 1.4 nM and the EC50 [2, 5] was 478 nM.
`CCC(=O)NC(Cc1ccccc1)[C@H](O)C(=O)N1CSC(C)(C)C1C(=O)NCc1ccccc1C` (stereo partly drawn) was tested, and the Ki ([1]; Ki, unit inferred) was 8.4 nM and the EC50 [2, 3] was ≥ 3200 nM.
`Cc1c(O)cccc1C(=O)N[C@@H](Cc1ccccc1)[C@H](O)C(=O)N1CSC(C)(C)[C@H]1C(=O)N[C@@H]1CCCc2sccc21` [Example A49, 3-[2-Hydroxy-3-(3-hydroxy-2-methyl-benzoylamino)-4-phenyl-butyryl]-5,5-dimethyl-thiazolidine-4-carboxylic acid (4,5,6,7-tetrahydro-benzo[b]thiophen-4-yl)-amide] was tested, and the Ki [1, 4] was 0.49 nM and the EC50 [2, 5] was 161 nM.
In the case of `CC1(C)SCN(C(=O)[C@@H](O)[C@H](Cc2ccccc2)NC(=O)CSc2nc[nH]n2)[C@@H]1C(=O)NCC#N`, the Ki ([1]; Ki, unit inferred) is reported as 28 nM and the EC50 [2, 3] is reported as ≥ 3200 nM.
`Cc1cccc(C)c1OCC(=O)N[C@@H](Cc1ccccc1)[C@H](O)C(=O)N1CSC(C)(C)[C@H]1C(=O)NCc1ccco1` [Example B38, (R)-3-{(2S,3S)-3-[2-(2,6-Dimethyl-phenoxy)-ethanoylamino]-2-hydroxy-4-phenyl-butanoyl}-5,5-dimethyl-thiazolidine-4-carboxylic acid (furan-2-ylmethyl)-amide] was tested, and the Ki [1, 4] was 0.16 nM and the EC50 [2, 5] was 600 nM.
Work on `CC1(C)SCN(C(=O)[C@@H](O)[C@H](Cc2ccccc2)NC(=O)c2cccc3c2CCN3)[C@@H]1C(=O)N[C@@H]1CCOc2ccccc21` yielded a Ki ([1]; Ki, unit inferred) of 7.4 nM and an EC50 [2, 3] of 1960 nM.
In the case of `C=CCOC(=O)N[C@@H](Cc1ccccc1)[C@H](O)C(=O)N1CSC(C)(C)[C@H]1C(=O)NCc1ccccc1Cl` [Example B47, {(1S,2S)-1-Benzyl-3-[(R)-4(2-chloro-benzylcarbamoyl)-5,5-dimethyl-thiazolidin-3-yl]-2-hydroxy-3-oxo-propyl}-carbamic acid allyl ester], the Ki [1, 4] is reported as 1.9 nM and the EC50 [2, 5] is reported as 1480 nM.
For `Cc1c(O)cccc1C(=O)N[C@@H](Cc1ccccc1)[C@H](O)C(=O)N1CC(F)(F)C(C)(C)[C@H]1C(=O)NCc1ccco1` [Example C20, (S)-4,4-Difluoro-1-[(2S,3S)-2-hydroxy-3-(3-hydroxy-2-methyl-benzoylamino)-4-phenyl-butyryl]-3,3-dimethyl-pyrrolidine-2-carboxylic acid (furan-2-ylmethyl)-amide], the Ki [1, 4] was < 0.1 nM and the EC50 [2, 5] was 35 nM.
`C#CCOC(=O)N[C@@H](Cc1ccccc1)[C@H](O)C(=O)N1CSC(C)(C)[C@H]1C(=O)NCc1ccccc1Cl` [Example B48, {1-Benzyl-3-[4(2-chloro-benzylcarbamoyl)-5,5-dimethyl-thiazolidin-3-yl]-2-hydroxy-3-oxo-propyl}-carbamic acid prop-2-ynyl ester] gave a Ki [1, 4] of 0.83 nM and an EC50 [2, 5] of 1480 nM.
`Cc1ccccc1CNC(=O)[C@H]1C2CCC(C2)N1C(=O)[C@@H](O)[C@H](Cc1ccccc1)NC(=O)c1cccc(O)c1C` (stereo partly drawn) gave a Ki ([1]; Ki, unit inferred) of 18.4 nM and an EC50 [2, 3] of 4000 nM.
Work on `C=CCNC(=O)[C@H]1N(C(=O)[C@@H](O)[C@H](Cc2ccccc2)NC(=O)COc2c(C)cccc2C)CSC1(C)C` [Example B23, (R)-3-{(2S,3S)-3-[2-(2,6-Dimethyl-phenoxy)-ethanoylamino]-2-hydroxy-4-phenyl-butanoyl}-5,5-dimethyl-thiazolidine-4-carboxylic acid allylamide] yielded a Ki [1, 4] of 0.15 nM and an EC50 [2, 5] of 294 nM.
Compound `C#CCCC(=O)N[C@@H](Cc1ccccc1)[C@H](O)C(=O)N1CSC(C)(C)[C@H]1C(=O)NCc1ccccc1C` [Example B18, (R)-3-((2S,3S)-2-Hydroxy-3-pent-4-ynoylamino-4-phenyl-butyryl)-5,5-dimethyl-thiazolidine-4-carboxylic acid 2-methyl-benzylamide] has a Ki [1, 4] of 0.56 nM and an EC50 [2, 5] of 1250 nM.
With `COc1cc2c(cc1OC)CN(C(=O)[C@H]1N(C(=O)[C@@H](O)[C@H](Cc3ccccc3)NC(=O)c3cccc(O)c3C)CSC1(C)C)CC2` the Ki ([1]; Ki, unit inferred) was 46 nM and the EC50 [2, 3] was ≥ 10000 nM.
`CCOC(=O)N[C@@H](Cc1ccccc1)[C@H](O)C(=O)N1CSC(C)(C)[C@H]1C(=O)NCc1ccccc1C` showed a Ki ([1]; Ki, unit inferred) of 0.88 nM and an EC50 [2, 3] of 1640 nM.
In the case of `Cc1c(O)cccc1C(=O)N[C@@H](Cc1ccccc1)[C@H](O)C(=O)N1CSC(C)(C)[C@H]1C(=O)NC1CCCCCC1` [Example A31, (R)-3-((2S,3S)-2-Hydroxy-3-{[1-(3-hydroxy-2-methyl-phenyl)-methanoyl]-amino}-4-phenyl-butanoyl)-5,5-dimethyl-thiazolidine-4-carboxylic acid cycloheptylamide], the Ki [1, 4] is reported as 0.44 nM and the EC50 [2, 5] is reported as 62 nM.
Compound `Cc1ccccc1C(=O)N[C@@H](Cc1ccccc1)[C@H](O)C(=O)N1CSC(C)(C)[C@H]1C(=O)NCc1cccs1` [Example B79, (R)-3-{(2S,3S)-2-Hydroxy-4phenyl-3-[(1-o-tolyl-methanoyl)-amino]-butanoyl}-5,5-dimethyl-thiazolidine-4-carboxylic acid (thiophen-2-ylmethyl)-amide] has a Ki [1, 4] of 0.78 nM and an EC50 [2, 5] of 530 nM.
`Cc1ccc(C(=O)N[C@@H](Cc2ccccc2)[C@H](O)C(=O)N2CSC(C)(C)[C@H]2C(=O)NCc2ccco2)c(C)c1O` showed a Ki ([1]; Ki, unit inferred) of 2 nM and an EC50 [2, 3] of 488 nM.
`Cc1ccccc1CNC(=O)C1N(C(=O)[C@@H](O)[C@H](CSc2ccccc2)NC(=O)c2cccc(O)c2C)CSC1(C)C` (stereo partly drawn) [drawing 969] was tested, and the Ki ([1]; Ki, unit inferred) was 0.25 nM and the EC50 ([2]; unit inferred, read-out: EC50) was 879 nM.
In the case of `C=CCCOC(=O)N[C@@H](Cc1ccccc1)[C@H](O)C(=O)N1CSC(C)(C)[C@H]1C(=O)NCc1ccccc1C` [Example B14, {(1S,2S)-1-Benzyl-3-[(R)-5,5-dimethyl-4-(2-methyl-benzylcarbamoyl)-thiazolidin-3-yl]-2-hydroxy-3-oxo-propyl}-carbamic acid but-3-enyl ester], the Ki [1, 4] is reported as 2.7 nM and the EC50 [2, 5] is reported as 1660 nM.
For `Cc1ccccc1CNC(=O)[C@H]1N(C(=O)[C@@H](O)C(Cc2ccccc2)NC(=O)CNc2c(C)cccc2C)CSC1(C)C` (stereo partly drawn), the Ki ([1]; Ki, unit inferred) was 2.3 nM and the EC50 [2, 3] was 1220 nM.
`Cc1cccc(C)c1OCC(=O)N[C@@H](Cc1ccccc1)[C@H](O)C(=O)N1CSC(C)(C)[C@H]1C(=O)NCc1ccccc1C(F)(F)F` showed a Ki ([1]; Ki, unit inferred) of 1.4 nM and an EC50 [2, 3] of 1950 nM.
For `CCCNC(=O)[C@H]1N(C(=O)[C@@H](O)[C@H](Cc2ccccc2)NC(=O)c2cccc3c2CCN3)CSC1(C)C` [Example B45, 2,3-Dihydro-1H-indole-4-carboxylic acid [(1S,2S)-1-benzyl-3-((R)-5,5-dimethyl-4-propylcarbamoyl-thiazoldin-3-yl)-2-hydroxy-3-oxo-propyl]-amide], the Ki [1, 4] was 1.1 nM and the EC50 [2, 5] was 572 nM.
With `Cc1ccccc1CNC(=O)[C@@H]1C[C@@H]2CCCC[C@@H]2CN1C[C@@H](O)[C@H](CSc1ccccc1)NC(=O)c1cccc(O)c1C` the Ki ([1]; Ki, unit inferred) was 6.4 nM and the EC50 [2, 3] was 901 nM.
`CC1(C)SCN(C(=O)[C@@H](O)[C@H](Cc2ccccc2)NC(=O)[C@@H]2CCCO2)[C@@H]1C(=O)N[C@H]1CCOc2ccccc21` showed a Ki ([1]; Ki, unit inferred) of 7.5 nM and an EC50 [2, 3] of 1250 nM.
`C=CCNC(=O)[C@H]1N(C(=O)[C@@H](O)[C@H](Cc2ccccc2)NC(=O)CSc2nc[nH]n2)CSC1(C)C` [Example B25, (R)-3-{(2S,3S)-2-Hydroxy-4-phenyl-3-[2-(1H-[1,2,4]triazol-3-ylsulfanyl)-ethanoylamino]-butanoyl}-5,5-dimethyl-thiazolidine-4-carboxylic acid allylamide] was tested, and the Ki [1, 4] was 21 nM and the EC50 [2, 5] was > 1000 nM.

From patent US7094909B2, “HIV protease inhibitors, compositions containing the same, their pharmaceutical uses and materials for their synthesis” (priority 2001, dated 2006)
